In ChEMBL document CHEMBL4311992, “Discovery of 3-(((9H-purin-6-yl)amino)methyl)-4,6-dimethylpyridin-2(1H)-one derivatives as novel tubulin polymerization inhibitors for treatment of cancer” (Eur J Med Chem, 2019) one finds Activity and inhibition data, which are given here for 1 compound.

The inhibition is the drop in the measured response relative to a control, in per cent.

The structures appear in SMILES notation.

For assay [1], the target named is BDNF/NT-3 growth factors receptor (Homo sapiens) (UniProt Q16620). Put plainly: Inhibition of human TrkB (455 to end residues) using poly(Glu, Tyr) 4:1 as substrate measured after 40 mins in presence of [gamma33P]ATP by scintillation counting method. Also noted: scale not given: the % may be the effect or the level left.
Assay [2] deals with Interferon-induced, double-stranded RNA-activated protein kinase (Homo sapiens) (UniProt P19525). Description: Inhibition of recombinant human PKR (252 to end residues) assessed as residual activity at 10 uM using RSRSRSRSRSRSRSR as substrate measured after 40 mins in presence of [gamma33P]ATP by scintillation counting method.
Assay [3] deals with Maternal embryonic leucine zipper kinase (Homo sapiens) (UniProt Q14680). Description: Inhibition of recombinant human MELK (1 to 340 residues) assessed as residual activity at 10 uM using KKLNRTLSFAEPG as substrate measured after 40 mins in presence of [gamma33P]ATP by scintillation counting method.
In assay [4] the target is Histone-lysine N-methyltransferase EZH2 (Homo sapiens) (UniProt Q15910). Put plainly: Inhibition of EZH2 (unknown origin) at 1 uM relative to control.
Assay [5] addresses Aurora kinase B (Homo sapiens) (UniProt Q96GD4). Put plainly: Inhibition of recombinant full-length human AURKB assessed as residual activity at 10 uM using AKRRRLSSLRA as substrate measured after 40 mins in presence of [gamma33P]ATP by scintillation counting method.
For assay [6], the system named is Serine/threonine-protein kinase B-raf (Homo sapiens), P15056 [V600E]. Description: Inhibition of recombinant human BRAF V599E mutant (416 to end residues) assessed as residual activity at 10 uM using myelin basic protein as substrate measured after 40 mins in presence of [gamma33P]ATP by scintillation counting method.
Assay [7] has as its system Homeodomain-interacting protein kinase 2 (Homo sapiens), Q9H2X6 [UNDEFINED MUTATION]. Put plainly: Inhibition of recombinant human HIPK2 I471N mutant (165 to 564 residues) assessed as residual activity at 10 uM using myelin basic protein as substrate measured after 40 mins in presence of [gamma33P]ATP by scintillation counting method.
In assay [8] the test system is Mast/stem cell growth factor receptor Kit (Homo sapiens), P10721 [V654A]. Description: Inhibition of recombinant human c-Kit V654A mutant (544 to end residues) assessed as residual activity at 10 uM using GGMEDIYFEFMGGKKK as substrate measured after 40 mins in presence of [gamma33P]ATP by scintillation counting method.
The target of assay [9] is Tyrosine-protein kinase ABL2 (Homo sapiens) (UniProt P42684). Description: Inhibition of recombinant human ARG (38 to end residues) assessed as residual activity at 10 uM using EAIYAAPFAKKK as substrate measured after 40 mins in presence of [gamma33P]ATP by scintillation counting method.
For assay [10], the target named is Activin receptor type-2A (Homo sapiens) (UniProt P27037). Description: Inhibition of recombinant human ACTR2 (162 to end residues) assessed as residual activity at 10 uM using casein as substrate measured after 120 mins in presence of [gamma33P]ATP by scintillation counting method.
Assay [11] has as its target Epidermal growth factor receptor (Homo sapiens) (UniProt P00533). Put plainly: Inhibition of recombinant human EGFR (696 to end residues) assessed as residual activity at 10 uM using poly(Glu, Tyr) 4:1 as substrate measured after 40 mins in presence of [gamma33P]ATP by scintillation counting method.
Assay [12] addresses Ephrin type-A receptor 3 (Homo sapiens) (UniProt P29320). Description: Inhibition of recombinant human EphA3 (578 to end residues) assessed as residual activity at 10 uM using poly(Glu, Tyr) 4:1 as substrate measured after 40 mins in presence of [gamma33P]ATP by scintillation counting method.
The target of assay [13] is Rhodopsin kinase GRK1 (Homo sapiens) (UniProt Q15835). Description: Inhibition of recombinant full-length human GRK1 assessed as residual activity at 10 uM using KKKKERLLDDRHDSGLDSMKDEE as substrate measured after 40 mins in presence of [gamma33P]ATP by scintillation counting method.
Assay [14] concerns the target Homeodomain-interacting protein kinase 1 (Homo sapiens) (UniProt Q86Z02). Description: Inhibition of recombinant human activated HIPK1 (158 to 555 residues) assessed as residual activity at 10 uM using myelin basic protein as substrate measured after 40 mins in presence of [gamma33P]ATP by scintillation counting method.
Assay [15] deals with Tyrosine-protein kinase Lck (Homo sapiens) (UniProt P06239). Description: Inhibition of recombinant full-length human Lck assessed as residual activity at 10 uM using KVEKIGEGTYGVV as substrate measured after 40 mins in presence of [gamma33P]ATP by scintillation counting method.
The target in assay [16] is Dual specificity mitogen-activated protein kinase kinase 4 (Homo sapiens) (UniProt P45985). Put plainly: Inhibition of recombinant human MKK4 (34 to end residues) assessed as residual activity at 10 uM using unactive JNK1a1 as substrate measured after 40 mins in presence of [gamma33P]ATP by scintillation counting method.
The target in assay [17] is Mitogen-activated protein kinase kinase kinase 10 (Homo sapiens) (UniProt Q02779). Description: Inhibition of recombinant human MLK2 (1 to 449 residues) assessed as residual activity at 10 uM using myelin basic protein as substrate measured after 40 mins in presence of [gamma33P]ATP by scintillation counting method.
The subject of assay [18] is Phosphorylase b kinase gamma catalytic chain, liver/testis isoform (Homo sapiens), P15735 [F290L]. Description: Inhibition of recombinant human PhKgamma2 F290L mutant (1 to 301 residues) assessed as residual activity at 10 uM using KKLNRTLSFAEPG as substrate measured after 40 mins in presence of [gamma33P]ATP by scintillation counting method.
Assay [19] addresses Macrophage-stimulating protein receptor (Homo sapiens) (UniProt Q04912). Put plainly: Inhibition of human Ron (983 to end residues) using GGMEDIYFEFMGGKKK as substrate measured after 40 mins in presence of [gamma33P]ATP by scintillation counting method. Also noted: scale not given: the % may be the effect or the level left.
The target in assay [20] is SRSF protein kinase 1 (Homo sapiens) (UniProt Q96SB4). Put plainly: Inhibition of human SRPK1 (2 to end residues) using RSRSRSRSRSRSRSR as substrate measured after 40 mins in presence of [gamma33P]ATP by scintillation counting method. Also noted: scale not given: the % may be the effect or the level left.
The target of assay [21] is Serine/threonine-protein kinase 16 (Homo sapiens) (UniProt O75716). Description: Inhibition of human STK16 assessed as residual activity at 10 uM by radiometric method.
Assay [22] addresses Serine/threonine-protein kinase WNK3 (Homo sapiens) (UniProt Q9BYP7). Put plainly: Inhibition of human WNK3 (1 to 434 residues) using myelin basic protein as substrate measured after 40 mins in presence of [gamma33P]ATP by scintillation counting method. Also noted: scale not given: the % may be the effect or the level left.
Assay [23] relates to PI3-kinase p110-alpha/p85-alpha (Homo sapiens), P27986+P42336 [H1047R]. Put plainly: Inhibition of recombinant full-length human PI3K p110alpha/p85alpha H1047R mutant assessed as residual activity at 10 uM using phosphatidylinositol-4, 5-bisphosphate as substrate measured after 40 mins by fluorescence assay. It counts as protein-complex assay.

Chain of Histone-lysine N-methyltransferase EZH2 (Homo sapiens) (Q15910 whole entry, looked up): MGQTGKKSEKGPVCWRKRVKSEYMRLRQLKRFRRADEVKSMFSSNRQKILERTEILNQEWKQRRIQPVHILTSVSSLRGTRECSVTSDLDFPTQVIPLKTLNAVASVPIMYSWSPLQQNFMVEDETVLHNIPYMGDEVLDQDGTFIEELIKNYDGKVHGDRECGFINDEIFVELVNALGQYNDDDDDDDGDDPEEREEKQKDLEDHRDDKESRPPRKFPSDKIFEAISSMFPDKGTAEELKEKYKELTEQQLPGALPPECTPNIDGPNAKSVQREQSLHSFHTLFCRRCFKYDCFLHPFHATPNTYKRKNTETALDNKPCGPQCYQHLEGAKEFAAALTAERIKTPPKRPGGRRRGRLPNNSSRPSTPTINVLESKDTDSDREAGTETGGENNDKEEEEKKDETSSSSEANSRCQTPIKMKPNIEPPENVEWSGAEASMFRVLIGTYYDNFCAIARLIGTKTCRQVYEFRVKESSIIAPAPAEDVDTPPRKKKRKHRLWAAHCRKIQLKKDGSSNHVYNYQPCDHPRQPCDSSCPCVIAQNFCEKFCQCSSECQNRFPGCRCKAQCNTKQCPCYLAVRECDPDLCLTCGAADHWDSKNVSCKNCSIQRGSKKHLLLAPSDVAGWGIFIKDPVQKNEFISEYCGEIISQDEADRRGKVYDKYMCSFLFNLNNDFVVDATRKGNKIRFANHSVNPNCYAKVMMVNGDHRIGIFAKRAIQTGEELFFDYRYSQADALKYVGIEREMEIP
Chain of Serine/threonine-protein kinase B-raf (Homo sapiens), P15056 [V600E] (P15056 whole entry V600E, the tested form may be a part): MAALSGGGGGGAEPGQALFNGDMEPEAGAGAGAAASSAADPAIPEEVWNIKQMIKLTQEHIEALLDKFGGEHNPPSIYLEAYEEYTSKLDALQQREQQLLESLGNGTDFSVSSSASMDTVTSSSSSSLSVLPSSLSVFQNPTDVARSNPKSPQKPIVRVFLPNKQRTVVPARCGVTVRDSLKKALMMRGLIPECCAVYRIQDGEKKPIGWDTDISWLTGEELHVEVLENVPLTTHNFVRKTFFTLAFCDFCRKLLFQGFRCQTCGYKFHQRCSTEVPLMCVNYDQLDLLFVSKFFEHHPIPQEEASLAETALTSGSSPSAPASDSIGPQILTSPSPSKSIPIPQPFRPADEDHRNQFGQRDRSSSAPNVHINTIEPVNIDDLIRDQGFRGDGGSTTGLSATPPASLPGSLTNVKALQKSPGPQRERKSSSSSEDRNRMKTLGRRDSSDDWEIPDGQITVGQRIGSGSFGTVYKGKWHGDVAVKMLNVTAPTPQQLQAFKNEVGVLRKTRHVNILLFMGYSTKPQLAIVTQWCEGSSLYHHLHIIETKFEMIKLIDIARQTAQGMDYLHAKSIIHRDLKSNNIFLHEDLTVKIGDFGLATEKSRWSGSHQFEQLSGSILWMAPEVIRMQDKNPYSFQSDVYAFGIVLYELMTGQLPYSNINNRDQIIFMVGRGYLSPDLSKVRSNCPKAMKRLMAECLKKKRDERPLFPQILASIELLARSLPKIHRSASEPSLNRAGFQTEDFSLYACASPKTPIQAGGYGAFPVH
Chain of Rhodopsin kinase GRK1 (Homo sapiens) (Q15835 whole entry, the tested form may be a part): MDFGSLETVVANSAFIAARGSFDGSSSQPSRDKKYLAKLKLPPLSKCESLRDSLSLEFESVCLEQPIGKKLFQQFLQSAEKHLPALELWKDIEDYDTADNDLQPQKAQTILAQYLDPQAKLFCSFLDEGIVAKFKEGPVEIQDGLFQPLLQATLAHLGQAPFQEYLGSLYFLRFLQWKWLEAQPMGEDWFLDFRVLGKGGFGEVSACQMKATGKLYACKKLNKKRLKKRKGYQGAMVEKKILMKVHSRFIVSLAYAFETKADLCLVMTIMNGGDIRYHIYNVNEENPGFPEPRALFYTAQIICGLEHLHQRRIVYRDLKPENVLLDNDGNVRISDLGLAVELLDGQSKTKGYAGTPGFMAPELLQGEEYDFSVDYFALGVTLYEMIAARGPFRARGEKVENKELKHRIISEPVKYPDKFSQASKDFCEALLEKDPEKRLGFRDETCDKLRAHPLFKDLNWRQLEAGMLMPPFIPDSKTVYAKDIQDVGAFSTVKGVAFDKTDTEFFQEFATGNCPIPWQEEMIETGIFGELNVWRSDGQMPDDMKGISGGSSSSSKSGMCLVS
Chain of Macrophage-stimulating protein receptor (Homo sapiens) (Q04912 25-304 limits assumed): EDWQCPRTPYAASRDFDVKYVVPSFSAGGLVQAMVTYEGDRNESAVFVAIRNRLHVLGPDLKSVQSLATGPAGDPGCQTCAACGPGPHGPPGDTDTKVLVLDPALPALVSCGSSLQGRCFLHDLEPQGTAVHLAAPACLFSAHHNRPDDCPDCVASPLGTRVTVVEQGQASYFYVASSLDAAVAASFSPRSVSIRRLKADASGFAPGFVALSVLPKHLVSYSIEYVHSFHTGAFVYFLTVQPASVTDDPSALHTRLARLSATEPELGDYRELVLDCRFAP
Chain of Macrophage-stimulating protein receptor (Homo sapiens) (Q04912 310-1400 limits assumed): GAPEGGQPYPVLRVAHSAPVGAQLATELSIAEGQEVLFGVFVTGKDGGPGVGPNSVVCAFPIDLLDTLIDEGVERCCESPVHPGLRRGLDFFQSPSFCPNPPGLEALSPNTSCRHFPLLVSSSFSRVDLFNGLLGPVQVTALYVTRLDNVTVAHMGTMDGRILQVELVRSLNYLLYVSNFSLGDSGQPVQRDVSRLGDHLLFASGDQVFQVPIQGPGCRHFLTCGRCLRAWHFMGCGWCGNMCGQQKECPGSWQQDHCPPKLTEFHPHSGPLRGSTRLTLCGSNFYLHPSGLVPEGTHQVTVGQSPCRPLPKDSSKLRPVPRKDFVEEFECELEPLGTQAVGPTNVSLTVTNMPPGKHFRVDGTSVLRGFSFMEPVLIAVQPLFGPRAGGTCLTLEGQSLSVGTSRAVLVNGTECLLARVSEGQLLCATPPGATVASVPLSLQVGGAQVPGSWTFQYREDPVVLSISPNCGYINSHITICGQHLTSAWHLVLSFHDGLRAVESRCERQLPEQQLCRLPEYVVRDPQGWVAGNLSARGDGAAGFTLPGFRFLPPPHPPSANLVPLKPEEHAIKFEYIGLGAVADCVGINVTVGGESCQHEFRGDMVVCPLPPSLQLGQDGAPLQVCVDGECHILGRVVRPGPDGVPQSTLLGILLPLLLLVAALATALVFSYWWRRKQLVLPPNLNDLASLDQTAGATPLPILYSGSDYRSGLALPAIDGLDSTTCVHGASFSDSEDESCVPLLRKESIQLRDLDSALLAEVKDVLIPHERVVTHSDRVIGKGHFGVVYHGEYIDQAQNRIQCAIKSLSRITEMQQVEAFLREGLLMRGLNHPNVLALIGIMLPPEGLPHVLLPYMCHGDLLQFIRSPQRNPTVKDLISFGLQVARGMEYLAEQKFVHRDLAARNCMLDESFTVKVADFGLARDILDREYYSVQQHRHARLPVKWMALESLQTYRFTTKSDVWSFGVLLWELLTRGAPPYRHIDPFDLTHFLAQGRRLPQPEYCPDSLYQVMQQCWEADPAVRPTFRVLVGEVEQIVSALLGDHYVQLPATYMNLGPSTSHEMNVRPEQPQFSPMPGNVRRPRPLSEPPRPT
Chain of Interferon-induced, double-stranded RNA-activated protein kinase (Homo sapiens) (P19525 whole entry, the tested form may be a part): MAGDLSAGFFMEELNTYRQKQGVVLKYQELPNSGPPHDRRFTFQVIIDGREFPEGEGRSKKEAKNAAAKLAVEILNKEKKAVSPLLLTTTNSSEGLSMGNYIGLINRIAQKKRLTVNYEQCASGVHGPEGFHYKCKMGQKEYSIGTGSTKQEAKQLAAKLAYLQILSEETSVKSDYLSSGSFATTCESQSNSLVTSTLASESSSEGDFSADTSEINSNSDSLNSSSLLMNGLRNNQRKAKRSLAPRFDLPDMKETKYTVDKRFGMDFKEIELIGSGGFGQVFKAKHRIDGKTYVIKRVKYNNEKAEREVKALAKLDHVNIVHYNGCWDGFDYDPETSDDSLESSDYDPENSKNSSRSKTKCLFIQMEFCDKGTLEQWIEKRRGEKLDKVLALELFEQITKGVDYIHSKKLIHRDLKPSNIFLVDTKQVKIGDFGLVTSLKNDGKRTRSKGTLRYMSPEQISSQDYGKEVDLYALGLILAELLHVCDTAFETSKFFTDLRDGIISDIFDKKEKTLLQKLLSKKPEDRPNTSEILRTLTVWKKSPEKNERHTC
Chain of BDNF/NT-3 growth factors receptor (Homo sapiens) (Q16620 32-822 limits assumed): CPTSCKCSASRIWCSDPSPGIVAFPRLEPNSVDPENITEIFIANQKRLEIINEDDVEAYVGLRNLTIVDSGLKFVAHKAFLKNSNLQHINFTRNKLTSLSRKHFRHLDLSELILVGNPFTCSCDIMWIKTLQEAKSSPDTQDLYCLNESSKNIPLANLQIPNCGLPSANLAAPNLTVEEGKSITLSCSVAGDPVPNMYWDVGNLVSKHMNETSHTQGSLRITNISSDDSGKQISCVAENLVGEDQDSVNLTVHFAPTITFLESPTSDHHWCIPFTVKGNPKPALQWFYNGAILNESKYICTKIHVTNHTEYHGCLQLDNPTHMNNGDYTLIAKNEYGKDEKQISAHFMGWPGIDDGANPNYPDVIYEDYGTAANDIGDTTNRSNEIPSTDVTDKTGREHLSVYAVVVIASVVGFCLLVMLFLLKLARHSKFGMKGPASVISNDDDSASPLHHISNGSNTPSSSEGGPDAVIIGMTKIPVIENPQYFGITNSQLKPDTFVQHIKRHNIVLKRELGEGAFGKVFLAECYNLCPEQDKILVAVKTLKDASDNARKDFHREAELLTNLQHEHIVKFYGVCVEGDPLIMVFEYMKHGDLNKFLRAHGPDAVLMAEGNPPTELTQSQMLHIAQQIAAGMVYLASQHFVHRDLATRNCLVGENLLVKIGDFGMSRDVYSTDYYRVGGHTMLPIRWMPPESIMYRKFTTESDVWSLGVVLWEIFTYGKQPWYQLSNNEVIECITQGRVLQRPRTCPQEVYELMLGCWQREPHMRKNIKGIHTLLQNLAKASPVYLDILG

In the case of `Cc1cc(C)c(CNc2nc(Cl)nc3c2ncn3C2CCCC2)c(=O)[nH]1`, the Activity in assay [1] amounted to 126%; in assay [2] it was 109%; in assay [3], 114%; in assay [5] it was 143%; in [6], 108%; in [7] it was 104%. For the same compound, the Activity in [8] stood at 90%; in assay [9], 115%; in assay [10], 104%; in [11], 114%; in [12], 102%; in assay [13], 90.5%. For the same compound, the Activity in assay [14] was found to be 100%; in assay [15], 84.5%; in assay [16], 133%; in assay [17] it was 91%; in assay [18], 92%; in assay [19], 110%. For the same compound, the Activity in [20] was found to be 101%; in [21] it was 102%; in assay [22] it was 136%; in assay [23], 101%. The inhibition in [4] was -10%.
